Data reported in patent US12257280B2, “Composition for preventing or treating muscular diseases, containing, as active ingredient, Glycyrrhiza uralensis extract or compound isolated therefrom” (NEO CREMAR CO., LTD., priority 2019, dated 2025).

Legend:
C2C12 cells [1] = experiment: Differentiation of myoblasts into myotubes (Giemsa stain, fusion index); format: cell-based, mouse
Method: The medium was changed every 2 days and the cells were cultured at 37° C. The medium of the cells was removed and the cells were washed with PBS. After washing, a 1:1 volume ratio of methanol:PBS was treated and then fixed for 2 minutes. Additionally, a 2:1 volume ratio of methanol:PBS reagent was added, followed by further fixation for 2 minutes. After 2 minutes, 0.04% Giemsa reagent was added, allowed to stand for 30 minutes, washed with PBS after 30 minutes, and then the appearance of the cells was observed under a microscope, and three photos of the cells were taken (300×). In the photographs taken, the number of fused nuclei in the myotube cells was counted, the total number of nuclei was counted, and the number of fused nuclei was divided by the total number of nuclei to calculate % value.

C2C12 cells [2] = experiment: Myoblast proliferation verification (MTT assay) in C2C12 cells; format: cell-based, mouse; details: for increased proliferation of cells compared to untreated cells: isolated final compounds, 0.5 ng/ml, 1 day, MTT (FIG. 7a)
Method: C2C12 cells, a mouse myoblast cell line, were cultured in Dulbecco's Modified Eagle's Medium (DMEM) containing 10% Fetal bovine serum (FBS) and 1% Penicillin/streptomycin (P/S).
To verify cell proliferation, the cell culture medium was removed and the cells was washed with DMEM, and then 500 μl of MTT reagent (0.5 mg/ml) dissolved in phosphate buffered saline (PBS) was added to each well and left for 1 hour at 37° C. The reaction solution was removed and 1000 μl of dimethyl sulfoxide (DMSO) was added to each well. Purple formazan crystals were completely dissolved in DMSO and absorbance was measured at 540 nm.

C57BL/6 mice = experiment: Muscle regeneration effect in mice with or without cardiotoxin (CTX) injection into gastrocnemius muscle; format: in vivo, mouse
Method: In order to observe the muscle regeneration effect according to the treatment of hot water extract of licorice or the final substance liquiritigenin, the mice were ingested with licorice hot water extract or liquiritigenin and Cardiotoxin (CTX) was/was not injected into the muscle and then the morphology and regeneration of the muscles were observed. C57BL/6 mice were ingested with licorice hot water extract (100 mg/kg) or liquiritigenin (15 mg/kg) and […] cardiotoxin was injected into the gastrocnemius muscle. After cardiotoxin injection, licorice hot water extract or liquiritigenin was ingested every day, and muscle tissue was sampled 7 days after non-injection or injection of cardiotoxin. The diameter (μm) of the muscle secured 7 days after non-injection or injection of cardiotoxin was measured using an image J program.

[3] = isolated final compounds, 0.25 ng/ml (FIG. 7b)
[4] = purchased compound, 15 mg/kg ingested daily
[5] = purchased compounds, 0.25 ng/ml (FIG. 7c)

Compound | myotube formation and fusion index increase (C2C12 cells [1]; [3]) [%] | myotube formation and fusion index increase (C2C12 cells [1]; purchased compounds (FIG. 7d)) [%] | increased proliferation of cells compared to untreated cells (C2C12 cells [2]) [%] | proliferation of cells increased compared to non-treated cells (C2C12 cells [2]; purchased compound, 1 ng/ml (FIG. 7c)) [%] | diameter of the regenerated muscle (C57BL/6 mice; 15 mg/kg, CTX-injected, 7 days, not ingested 78±4) [μm] | muscle diameter (muscle fiber size) (C57BL/6 mice; 15 mg/kg, second pair of values, apparently non-injected muscle, not ingested 124±4) [μm] | body and gastrocnemius muscle weights vs non-treated controls (C57BL/6 mice; [4]) | muscle mass reductions vs non-treated controls (C57BL/6 mice; [4]) | proliferation of cells increased compared to non-treated cells (C2C12 cells [2]; [5]) [%]
COc1c(/C=C/C(=O)c2ccc(O)cc2)ccc(O)c1O [licochalcone B, Licochalcone B] | 19 | 20 | 11 | 11 |  |  |  |  | 
O=C1C[C@@H](c2ccc(O)cc2)Oc2cc(O)ccc21 [liquiritigenin, Liquiritigenin] | 13 | 20 | 10 |  | 91±3 | 139±4 | similar | less | 5
COc1c(/C=C/C(=O)c2ccc(O)c(O)c2)ccc(O)c1O [tetrahydroxymethoxychalcone, Tetrahydroxy methoxychalcone] | 28 | 23 | 8 |  |  |  |  |  | 5
